These results are taken from ChEMBL document CHEMBL1140201, “Insights into ligand-elicited activation of human constitutive androstane receptor based on novel agonists and three-dimensional quantitative structure-activity relationship” (J Med Chem, 2008).

What all share (assay type): cell-based
The target in data set [1] is CAR (NR1I3) His203Ala mutant (Homo sapiens, UniProt Q14994, H203A). The data set can be described thus: Activation of human CAR His203Ala mutant expressed in human C3A cells at 10 uM after 24 hrs by GAL4-dependent luciferase reporter gene assay relative to control. Particulars: C3A cells expressing human CAR His203Ala mutant, read-out: FC. In general terms: A reporter such as luciferase makes a cellular process visible.

Data set [2] deals with CAR (NR1I3) Phe161Ala mutant (Homo sapiens, UniProt Q14994, F161A). The data set can be described thus: Activation of human CAR Phe161Ala mutant expressed in human C3A cells at 10 uM after 24 hrs by GAL4-dependent luciferase reporter gene assay relative to control. Particulars: C3A cells expressing human CAR Phe161Ala mutant, read-out: FC.
Data set [3] deals with CAR (NR1I3) Asn165Ala mutant (Homo sapiens, UniProt Q14994, N165A). Briefly: Activation of human CAR Asn165Ala mutant expressed in human C3A cells at 10 uM after 24 hrs by GAL4-dependent luciferase reporter gene assay relative to control. Particulars: C3A cells expressing human CAR Asn165Ala mutant, read-out: FC.
Data set [4] has as its target T1, CAR (NR1I3) ligand-binding domain, wild type (Homo sapiens, UniProt Q14994).
T1 sequence (Q14994 whole entry): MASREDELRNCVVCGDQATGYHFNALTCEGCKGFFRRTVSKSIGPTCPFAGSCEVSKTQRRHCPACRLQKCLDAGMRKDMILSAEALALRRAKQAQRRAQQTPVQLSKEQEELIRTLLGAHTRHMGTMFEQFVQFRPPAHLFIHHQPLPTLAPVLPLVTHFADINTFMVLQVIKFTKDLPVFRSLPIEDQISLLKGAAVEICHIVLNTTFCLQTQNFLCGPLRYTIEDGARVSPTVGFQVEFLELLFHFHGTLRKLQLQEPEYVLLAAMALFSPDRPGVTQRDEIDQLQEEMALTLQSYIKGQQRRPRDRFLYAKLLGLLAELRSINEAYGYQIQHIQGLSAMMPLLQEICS
The data set can be described thus: Activation of human CAR-LBD expressed in human C3A cells at 10 uM after 24 hrs by GAL4-dependent luciferase reporter gene assay relative to control. Particulars: C3A cells expressing human CAR-LBD, read-out: FC.

The target in data set [5] is CAR (NR1I3) Ile164Ala mutant (Homo sapiens, UniProt Q14994, I164A). Briefly: Activation of human CAR Ile164Ala mutant expressed in human C3A cells at 10 uM after 24 hrs by GAL4-dependent luciferase reporter gene assay relative to control. Particulars: C3A cells expressing human CAR Ile164Ala mutant, read-out: FC.
Sequence of CAR (NR1I3) Ile164Ala mutant (Q14994 whole entry I164A, the tested form may be a part): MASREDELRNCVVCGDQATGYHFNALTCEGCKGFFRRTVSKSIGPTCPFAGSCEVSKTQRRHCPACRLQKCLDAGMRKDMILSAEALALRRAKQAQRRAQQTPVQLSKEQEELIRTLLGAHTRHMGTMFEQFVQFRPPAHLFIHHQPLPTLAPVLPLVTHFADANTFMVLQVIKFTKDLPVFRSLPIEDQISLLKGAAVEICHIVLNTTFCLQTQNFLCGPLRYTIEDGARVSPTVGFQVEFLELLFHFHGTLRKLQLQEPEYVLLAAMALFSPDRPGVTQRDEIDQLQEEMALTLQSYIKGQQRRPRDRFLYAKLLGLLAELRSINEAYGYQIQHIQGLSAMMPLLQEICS

Sequence of CAR (NR1I3) Phe161Ala mutant (Q14994 whole entry F161A, the tested form may be a part): as the sequence (Q14994 whole entry I164A, the tested form may be a part) above, with F161A, A164I counted along it
Sequence of CAR (NR1I3) His203Ala mutant (Q14994 whole entry H203A, the tested form may be a part): as the sequence (Q14994 whole entry I164A, the tested form may be a part) above, with A164I, H203A counted along it
Sequence of CAR (NR1I3) Asn165Ala mutant (Q14994 whole entry N165A, the tested form may be a part): as the sequence (Q14994 whole entry I164A, the tested form may be a part) above, with A164I, N165A counted along it

On to `CCOc1ccccc1N1CCN(Cc2ccc(C)s2)CC1`, for which the fold induction at 24 h, 10 µM in data set [1] amounted to 1.9; in data set [2], 1.01; in data set [3], 2.2; in data set [4], 2.7; in data set [5] it was 1.49.
Consider `CCc1cc(Br)ccc1S(=O)(=O)NCc1ccccc1`, for which the fold induction at 24 h, 10 µM in data set [1] stood at 1.92; in data set [2], 3.36; in data set [3] it was 1.19; in data set [4], 2.51; in data set [5], 2.89.
As for `CCC(=O)NCC(=O)N1CCCN1C(=O)Cc1c(C)[nH]c2ccccc12`, the fold induction at 24 h, 10 µM was determined as 2.06 in data set [1]; 0.96 in data set [2]; 1.23 in data set [3]; 2.39 in data set [4]; 1.08 in data set [5].
In the same order, the values of `CCN(c1ccccc1)S(=O)(=O)c1ccc(C(C)(C)CC)cc1` are 4.22, 1.56, 1.22, 6.35 and 1.42.
In the same order, the values of `CSCCN1C(=O)CS[C@@H]1c1ccc(Br)s1` are 1.28, 0.97, 1.87, 2.97 and 1.3.
As to `CN(C)c1ccc(NS(=O)(=O)c2ccc(Br)cc2)cc1`, the fold induction at 24 h, 10 µM in data set [1] stood at 2.26; in data set [2], 1.12; in data set [3], 0.99; in data set [4], 2.03; in data set [5], 2.33.
In the same order, the values of `CCc1cccc(NC(=O)N(CC)[C@H](C)Cc2ccc(OC)cc2)c1` are 1.88, 0.92, 1.72, 1.86 and 1.32.
In the same order, the values of `CCCCCNC(=O)Nc1c(C)cccc1C(C)(C)C` are 4.17, 0.97, 1.76, 2.6 and 1.24.
In the same order, the values of `COc1ccc(OC)c(CN2C(=O)CS[C@@H]2c2ccc(F)c(Br)c2)c1` are 2.83, 1.17, 1.13, 3.87 and 1.87.
Take `CCc1ccc(S(=O)(=O)Nc2ccccc2C(C)(C)C)cc1`: the fold induction at 24 h, 10 µM in data set [1] is 2.62; in data set [2] it was 0.94; in data set [3], 1; in data set [4], 7.92; in data set [5], 1.55.
In the same order, the values of `O=S(=O)(NCCSCc1ccccc1)c1ccc(Cl)cc1` are 3.21, 0.92, 1.17, 1.63 and 2.26.
In the case of `CCc1cc(Br)ccc1S(=O)(=O)Nc1ccccc1[C@@H](C)CC`, the fold induction at 24 h, 10 µM in data set [1] is 10.1; in data set [2] it was 3.62; in data set [3], 2.75; in data set [4], 4.47; in data set [5], 4.57.
In the same order, the values of `CSc1ccccc1NS(=O)(=O)c1cc(Cl)sc1Cl` are 1.84, 0.94, 5.18, 3.68 and 1.66.
The like results for `CCOc1ccccc1CCCNC(=O)Nc1c(CC)cccc1CC` were, in that order, 1.03, 1.52, 0.81, 4.88 and 1.48.
In the case of `O=S(=O)(NCC(c1ccccc1)c1ccccc1)c1cccs1`, the fold induction at 24 h, 10 µM in data set [1] came out at 1.86; in data set [2], 0.95; in data set [3], 0.53; in data set [4] it was 3.28; in data set [5] it was 1.42.
For the compound `Cc1cccc(NC(=O)N2CCN(c3cccc(C)c3)[C@H](C)C2)c1`, the fold induction at 24 h, 10 µM in data set [1] came out at 1.43; in data set [2], 1.38; in data set [3], 1.08; in data set [4] it was 1.45; in data set [5], 0.84.
The like results for `CCCCN(c1ccccc1)S(=O)(=O)c1cccc2ccccc12` were, in that order, 5.44, 4.4, 2.07, 4.09 and 6.61.
Turning to `CCN(CC)c1ccc(NS(=O)(=O)c2ccc(Cl)cc2)c(C)c1`, the fold induction at 24 h, 10 µM turned out to be 3.29 in data set [1]; 1.08 in data set [2]; 1.1 in data set [3]; 5.5 in data set [4]; 4.14 in data set [5].
Take `O=S(=O)(NCc1csc2ccccc12)c1cccs1`: the fold induction at 24 h, 10 µM was 1.43 in data set [1]; 1.57 in data set [2]; 1.7 in data set [3]; 1.76 in data set [4]; 1.54 in data set [5].
The like results for `CCCc1ccc(S(=O)(=O)N(Cc2ccccc2)c2ccc(OC)cc2)cc1` were, in that order, 3.68, 1.22, 1.82, 3.8 and 1.56.
The like results for `C[C@@H]1Cc2ccccc2N1S(=O)(=O)c1cccc2nsnc12` were, in that order, 1.52, 1.3, 1.05, 5.22 and 6.66.
In the case of `Cn1ccnc1CN1CCCN(C(=O)Nc2ccc(F)c(F)c2F)CC1`, the fold induction at 24 h, 10 µM in data set [1] came out at 1.49; in data set [2] it was 1.24; in data set [3], 1.98; in data set [4], 2.23; in data set [5], 1.36.
On to `O=C(NCC1CCCCC1)N[C@H]1C[C@@H]1c1ccccc1`, for which the fold induction at 24 h, 10 µM in data set [1] worked out at 2.16; in data set [2], 1.21; in data set [3], 1.14; in data set [4] it was 2.95; in data set [5] it was 2.86.
With `Cc1cccc(NC(=O)N(Cc2ccccc2)Cc2ccccc2)c1`, the fold induction at 24 h, 10 µM turned out to be 3.48 in data set [1]; 1.53 in data set [2]; 3.64 in data set [3]; 4.17 in data set [4]; 3.74 in data set [5].
